Values quoted from earlier work, collected in US20080214562A1, “Chemical Compounds” (priority 2005, published 2008).

System: T-tropic HIV
Details: patients that are dual tropic or where only the T-tropic form of the virus is present

c1cc(CN2CCCNCCNCCCNCC2)ccc1CN1CCCNCCNCCCNCC1 [AMD-3100]
T-tropic HIV viral load: significantly reduce
